Data as given in PubChem BioAssay (NCI).
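48-hour exposure; five concentrations; linearly interpolated endpoints. GI50: concentration for 50% inhibition of growth. TGI marks complete inhibition of growth.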 *1 amine or outer side, *2 acyl side, *3 side chain or, on linkers, in order; H or OH if unused. Where a SMILES comes first, the peptide text is derived from it. Bridges are numbered along the chain shown (N, C = ends). Roman numbers before positions name the chains, in order. [ ]: non-standard residue; d: D form. Actinocin(9to1) = Cc1c2oc3c(C)ccc(C(=O)[*:1])c3nc-2c(C(=O)[*:2])c(N)c1=O; NMeV = CN[CH](C(=O)O)C(C)C; Sar = CNCC(=O)O

Tests used:
Assay in all cases: NCI-60 cell line screen, 48 h
CCRF-CEM leukemia = test system: CCRF-CEM leukemia
SNB-75 CNS = test system: SNB-75 CNS
NCI-H23 lung = test system: NCI-H23 lung
K-562 leukemia = test system: K-562 leukemia
HOP-92 NSCLC = test system: HOP-92 NSCLC
SF-295 CNS = test system: SF-295 CNS
MDA-MB-435 = test system: MDA-MB-435
HS 578T breast = test system: HS 578T breast
PC-3 prostate = test system: PC-3 prostate
DU-145 prostate = test system: DU-145 prostate

| Structure (SMILES) | TGI (CCRF-CEM leukemia) | TGI (SNB-75 CNS) | TGI (NCI-H23 lung) | TGI (K-562 leukemia) | TGI (HOP-92 NSCLC) | TGI (SF-295 CNS) | TGI (MDA-MB-435) | TGI (HS 578T breast) | TGI (PC-3 prostate) | TGI (DU-145 prostate) | GI50 (MDA-MB-435) | GI50 (SNB-75 CNS) | GI50 (DU-145 prostate) | GI50 (HS 578T breast) | GI50 (K-562 leukemia) | GI50 (HOP-92 NSCLC) | GI50 (PC-3 prostate) | GI50 (CCRF-CEM leukemia) | GI50 (NCI-H23 lung) | GI50 (SF-295 CNS) |
| --- | --- | --- | --- | --- | --- | --- | --- | --- | --- | --- | --- | --- | --- | --- | --- | --- | --- | --- | --- | --- |
| Cc1cc(S(=O)(=O)O)c(NC(=O)C(=O)C2C=CCS2(=O)=O)cc1Cl (stereo not given) | > 100 µM | > 100 µM | > 100 µM | > 100 µM | > 100 µM | > 100 µM | – | – | – | – | – | – | – | – | – | – | – | – | – | – |
| O=c1c(C=Nc2ccc([N+](=O)[O-])cc2)c(O)n(-c2ccccc2)c(=O)n1-c1ccccc1 | > 100 µM | > 100 µM | > 100 µM | > 100 µM | > 100 µM | > 100 µM | > 100 µM | > 100 µM | > 100 µM | – | – | – | – | – | – | – | – | – | – | – |
| O=C1C=C(Br)c2c(Br)sc(Br)c21 | – | 39.7 µM | 25.6 µM | > 36.7 µM | 7.64 µM | 99.4 µM | 42.9 µM | > 100 µM | 26.4 µM | 29 µM | – | – | – | – | – | – | – | – | – | – |
| OC1(c2cc3ccccc3s2)CCCCC1 | 66.7 µM | > 100 µM | > 100 µM | > 100 µM | > 100 µM | > 100 µM | > 100 µM | 87.5 µM | – | > 100 µM | – | – | – | – | – | – | – | – | – | – |
| C/C(=N\NC(N)=S)C(CN(CC(C)C)CC(C)C)C(=O)Nc1ccc(C)cc1C (stereo not given) | > 100 µM | > 100 µM | > 100 µM | > 100 µM | > 100 µM | > 100 µM | – | – | – | – | – | – | – | – | – | – | – | – | – | – |
| COc1cccc(/C=N/[N-]C(N)=O)c1[O-].[Ni+2].[OH3+].c1cnc2c(c1)ccc1cccnc12 | > 100 µM | > 100 µM | > 100 µM | > 100 µM | > 100 µM | > 100 µM | – | – | – | – | – | – | – | – | – | – | – | – | – | – |
| CN(C)CCSC(=Nc1ccccc1)N1CCCCC1 | > 100 µM | 59.6 µM | 37.3 µM | > 100 µM | 27.5 µM | > 100 µM | – | – | – | – | – | – | – | – | – | – | – | – | – | – |
| Cc1ccc(N2CCc3c(C)c(C#N)c4nc5ccccc5n4c32)cc1 | > 100 µM | 62 µM | > 100 µM | – | 57.5 µM | > 100 µM | > 100 µM | 48.3 µM | > 100 µM | > 100 µM | – | – | – | – | – | – | – | – | – | – |
| Cc1ccc(C(C2C(=O)N(C)C(=O)N(C)C2=O)C(F)(F)C(=O)N(C)C)cc1 (stereo not given) | > 100 µM | > 100 µM | > 100 µM | – | > 100 µM | > 100 µM | > 100 µM | – | > 100 µM | > 100 µM | – | – | – | – | – | – | – | – | – | – |
| CCc1ccc2[nH]c(O)c(-c3[nH]c4ccccc4c3N=O)c2c1 | > 100 µM | 28.9 µM | 19 µM | 97.1 µM | – | 20.5 µM | 21.9 µM | 30.5 µM | 19.8 µM | 22.5 µM | – | – | – | – | – | – | – | – | – | – |
| Cc1c2oc3c(C)ccc(C(=O)NC4C(=O)NC(C(C)O)C(=O)N5CCCC5C(=O)N(C)CC(=O)N(C)C(C(C)C)C(=O)OC4C)c3nc-2c(C(=O)NC2C(=O)NC(C(C)O)C(=O)N3CCCC3C(=O)N(C)CC(=O)N(C)C(C(C)C)C(=O)OC2C)c(N)c1=O (stereo not given) (I: TTP[Sar][NMeV] / II: TTP[Sar][NMeV]; ester I:1-I:C, II:1-II:C; linker I:N-II:N via Actinocin(9to1); configuration not given here) | 5 µM | 1.95 µM | 4.8 µM | 3.43 µM | – | > 100 µM | 3.81 µM | 72 µM | > 100 µM | > 100 µM | – | – | – | – | – | – | – | – | – | – |
| [N-]=[N+]=CC(=O)OCC1SCCCS1 | > 100 µM | – | > 100 µM | > 100 µM | > 100 µM | > 100 µM | > 100 µM | – | > 100 µM | > 100 µM | – | – | – | – | – | – | – | – | – | – |
| COc1ccc(N=N/C(=N/NC(=O)c2ccccc2)c2ccc(N(CCC#N)CCC#N)cc2C)cc1 | > 100 µM | > 100 µM | > 100 µM | > 100 µM | – | > 100 µM | > 100 µM | 75.2 µM | > 100 µM | > 100 µM | – | – | – | – | – | – | – | – | – | – |
| COc1ccc2c(c1)n([O-])c(C#N)c(N1CCN(c3ccc([N+](=O)[O-])cc3)CC1)[n+]2=O | > 100 µM | 66.2 µM | > 100 µM | > 100 µM | – | > 48.1 µM | 97.3 µM | > 24.4 µM | > 100 µM | > 84.1 µM | – | – | – | – | – | – | – | – | – | – |
| C=C1C(=O)OCC2C(C(=O)O)=CC3C(C)C(C)=CC123 (stereo not given) | 42 µM | 44.1 µM | 25.7 µM | 72.4 µM | 25.5 µM | 49.1 µM | – | – | – | – | – | – | – | – | – | – | – | – | – | – |
| C#CC(F)(F)[C@]1(O)CC[C@H]2[C@@H]3CCC4=CC(=O)CCC4=C3[C@@H](c3ccc(C(C)=O)cc3)C[C@@]21C | – | > 100 µM | – | > 100 µM | 0.356 µM | – | 52 µM | > 95.2 µM | 97.9 µM | 95.1 µM | 13.9 µM | 3.82 µM | 20.1 µM | 17 µM | 8.64 µM | 0.0456 µM | 10 µM | – | – | – |
| CC(C)c1ccc(/C=C2\CSCC3=C2NC(=S)NC3c2ccc(C(C)C)cc2)cc1 (stereo not given) | > 100 µM | – | > 100 µM | > 100 µM | > 100 µM | > 100 µM | – | – | > 100 µM | > 100 µM | – | – | – | – | – | – | – | – | – | – |
| CNC(=O)c1cc(NC(=O)N(CCC#N)CCN(C(=O)N[C@@H](Cc2ccccc2)C(=O)N[C@@H](CC(C)C)C(=O)NC)c2ccccc2)ccc1OC | > 100 µM | > 100 µM | > 100 µM | – | 71.7 µM | > 100 µM | > 100 µM | > 100 µM | > 100 µM | > 100 µM | – | – | – | – | – | – | – | – | – | – |
| COc1cccc(Cc2c3cc(OC)ccc3cc[n+]2C)c1 | > 100 µM | > 100 µM | > 100 µM | > 100 µM | – | > 100 µM | – | – | – | – | – | – | – | – | – | – | – | – | – | – |
| O=C(NC1CCN(Cc2ccccc2)CC1)c1cc2nc(-c3ccc(Cl)s3)cc(C(F)(F)F)n2n1 | > 100 µM | > 100 µM | > 100 µM | > 100 µM | > 100 µM | > 100 µM | > 100 µM | > 100 µM | – | > 100 µM | > 100 µM | 10.5 µM | > 100 µM | 10.9 µM | 3.29 µM | 15.4 µM | – | > 100 µM | > 100 µM | > 100 µM |
| O=C1/C(=C/c2ccccc2[N+](=O)[O-])N=C(c2ccccc2)N1C1Nc2cc3c(cc2S1)NC(N1C(=O)/C(=C/c2ccccc2[N+](=O)[O-])N=C1c1ccccc1)S3 (stereo not given) | – | > 100 µM | > 100 µM | > 100 µM | > 100 µM | > 100 µM | > 100 µM | > 100 µM | > 100 µM | > 100 µM | – | – | – | – | – | – | – | – | – | – |
